Where a SMILES comes first, the peptide text is derived from it.
How the values were obtained:
L. crispatus and E. coli = test: Therapeutic Effect Protocol: L. crispatus / E. coli co-culture, ratio after 36 hours; format: cell-based, Lactobacillus crispatus; E. coli; conditions: for Therapeutic Efficacy Results (Lactobacillus/E. coli) 0.10%: nitrogen compound 0.10 wt/vol % with 1.0 wt/vol % α methyl-D glucoside (10:1); for Therapeutic Efficacy Results (Lactobacillus/E. coli) 0.10% / Therapeutic Efficacy Results (Lactobacillus/E. coli) 0.50% / Therapeutic Efficacy Results (Lactobacillus/E. coli) 1.00%: 36 hours anaerobic co-culture, 37° C.; for Therapeutic Efficacy Results (Lactobacillus/E. coli) 0.50%: nitrogen compound 0.50 wt/vol % with 1.0 wt/vol % α methyl-D glucoside (2:1); for Therapeutic Efficacy Results (Lactobacillus/E. coli) 1.00%: nitrogen compound 1.00 wt/vol % with 1.0 wt/vol % α methyl-D glucoside (1:1); for Therapeutic effect when ratio α methyl-D glucoside : nitrogen compound is at least about 2:1, but not at 1:1: ratio at least about 2:1, not 1:1; for Therapeutic effect at ratio 2:1 and 10:1, but not at 1:1: ratios 2:1 and 10:1, not 1:1; for Therapeutic effect when ratio α methyl-D glucoside : nitrogen compound is less than 2:1 (1:1): ratio 1:1
Experimental: As used herein the term “therapeutic effect” refers to the ability of the compositions and formulations of the present invention to stimulate the growth of Lactobacillus relative E. coli measured according to the Therapeutic Effect Protocol described below. Generally, therapeutic effect is expressed as a ratio of Lactobacillus to E. coli and is desirably greater than about 2, more preferably greater than about 20 and more desirably greater than about 100.
The data in Table 1 was tested according to the Therapeutic Effect Protocol as described further herein. The nitrogen compounds were tested for their therapeutic efficacy at three different concentrations when combined with α methyl-D glucoside (1% wt/vol %). The concentrations of the nitrogen containing compounds that were tested were 1% wt/vol %, 0.5% wt/vol %, and 0.1% wt/vol %.
Colonies of L. crispatus and E. coli were prepared as follows. A colony of L. crispatus was transferred to 7 ml de Man, Rogosa & Sharpe (MRS) broth and incubated anaerobically (using BD GasPak EZ anaerobe container system with indicator) at 37° C. without shaking for 18-20 hours. A colony of E. coli was transferred to 5 ml Tryptic Soy Broth (TSB) and incubated aerobically (shaking at 100 rpm) at 37° C. for 18-20 hours.
Colonies were then inoculated as follows. Bacterial cultures were gently vortexed and 1 mL of each culture was transferred to a corresponding 2.0 mL micro-centrifuge tube and then centrifuged for two minutes at 14,500 rpm. The cultural supernatant was removed and the cell pellet was re-suspended in 1 mL of 0.95% (wt/vol %) saline. […] For L. crispatus, the pellet was re-suspended in 1 mL of 0.95% saline to achieve ˜10^7-10^8 cfu/mL. For E. coli, the pellet was re-suspended in 1 mL of 0.95% saline to achieve ˜10^8-10^9 cfu/mL.
Media were prepared as follows.
(§1) All of the ingredients in Table 2 were combined and the pH was adjusted to 6.5. […] To evaluate the effect of various nitrogen containing therapeutic agents on the growth of bacteria, the LAPT-g media, prepared as described above, was supplemented with various nitrogen containing compound therapeutic agents to a final test concentration between 0.1 and 1.0%. As initial screening measures, solubility and initial pH of each composition were checked. If a specific composition was insoluble (as detected by visual indication of precipitates or turbidity), then no further therapeutic efficacy testing was undertaken on that composition. Additionally, if the initial pH of the composition was below 5.5 (“Low”) or was above 6.5 (“High”), then no further therapeutic efficacy testing was undertaken on that composition.
Five milliliters (5 mL) of each medium was transferred to a test tube in duplicates for subsequent inoculation. A master mixture of L. crispatus and E. coli, prepared as described above, was prepared in 1,000:1 ratio. Each (5 ml) test tube was inoculated with the master mixture to give 10^5-10^6 total CFU L. crispatus and 100-1,000 total CFU E. coli per tube.
To establish a negative control, one tube was vortexed and 100 μL was removed to determine the initial cell concentrations by serial dilutions and plating (2 plates per dilution). L. crispatus is selected on MRS agar plates incubated anaerobically at 37° C. for two days. E. coli is selected on TSA plates incubated aerobically at 37° C. for one day. The co-cultures were incubated in an anaerobic container with BD GasPaks at 37° C. for 36 hours.
The effect of the α methyl-D glucoside and the nitrogen containing compound therapeutic agents on the ratio of L. crispatus to E. coli was measured 36 hours after inoculation and a final pH of the test solutions was recorded. The co-culture tube was vortexed and 100 μL was removed to determine the final cell concentrations by serial dilutions and plating (2 plates per dilution). L. crispatus is selected on MRS agar plates incubated anaerobically at 37° C. for two days.

[1] = Initial pH screening of the composition; format: physicochemical; conditions: for I pH (initial pH), 0.10%: nitrogen compound 0.10 wt/vol % with 1.0 wt/vol % α methyl-D glucoside in medium; for I pH (initial pH), 0.50%: nitrogen compound 0.50 wt/vol % with 1.0 wt/vol % α methyl-D glucoside in medium; for I pH (initial pH), 1.00%: nitrogen compound 1.00 wt/vol % with 1.0 wt/vol % α methyl-D glucoside in medium
Source text: Each composition in Table 1 went through initial screening measures of solubility and initial pH (“I pH”). […] When a specific concentration of a nitrogen containing compound was insoluble, the initial and final pH (“F pH”) of the combined composition was not measured and accordingly are each marked as “NM.” Additionally, initial pH of the composition was checked as a screening measure. The initial pH was marked as either Low (“L”), High (“H”), or Pass (“P”). A Low initial pH corresponds to an initial pH being less than 5.5, a High initial pH corresponds to an initial pH being greater than 6.5, and a Pass initial pH corresponds to the pH being at or between 5.5-6.5. […] As part of the Therapeutic Effect Protocol, a final pH was also measured after the compositions that were tested against the Lactobacillus and E. coli.
as §1

| Structure (SMILES) | Therapeutic Efficacy Results (Lactobacillus/E. coli) 0.10% (L. crispatus and E. coli) | Therapeutic Efficacy Results (Lactobacillus/E. coli) 0.50% (L. crispatus and E. coli) | Therapeutic Efficacy Results (Lactobacillus/E. coli) 1.00% (L. crispatus and E. coli) | Therapeutic effect when ratio α methyl-D glucoside : nitrogen compound is at least about 2:1, but not at 1:1 (L. crispatus and E. coli; with α methyl-D glucoside) | Therapeutic effect at ratio 2:1 and 10:1, but not at 1:1 (L. crispatus and E. coli; with α methyl-D glucoside) | I pH (initial pH), 0.10% [1] | I pH (initial pH), 0.50% [1] | I pH (initial pH), 1.00% [1] | Therapeutic effect (ratio of Lactobacillus to E. coli greater than 2) at each concentration tested (L. crispatus and E. coli; with α methyl-D glucoside, nitrogen compound 1 wt/vol %, 0.5 wt/vol % and 0.1 wt/vol %) | Therapeutic effect when ratio α methyl-D glucoside : nitrogen compound is less than 2:1 (1:1) (L. crispatus and E. coli; with α methyl-D glucoside) |
| --- | --- | --- | --- | --- | --- | --- | --- | --- | --- | --- |
| OC[C@H]1O[C@@H](n2cnc3c(O)ncnc32)[C@H](O)[C@@H]1O [Inosine] | 2.75E+04 | 226 | 0.45 | provided a therapeutic effect | provided a therapeutic effect | P (a Pass initial pH corresponds to the pH being at or between 5.5-6.5) | P (a Pass initial pH corresponds to the pH being at or between 5.5-6.5) | P (a Pass initial pH corresponds to the pH being at or between 5.5-6.5) |  |  |
| c1cncnc1 [Pyrimidine] | 245 | >4760 | 4.05 |  |  | P (a Pass initial pH corresponds to the pH being at or between 5.5-6.5) | P (a Pass initial pH corresponds to the pH being at or between 5.5-6.5) | P (a Pass initial pH corresponds to the pH being at or between 5.5-6.5) | provided a therapeutic effect | provided a therapeutic effect |
| NO [Hydroxylamine] | 0.20 |  |  |  |  | H (a High initial pH corresponds to an initial pH being greater than 6.5) | H (a High initial pH corresponds to an initial pH being greater than 6.5) | H (a High initial pH corresponds to an initial pH being greater than 6.5) |  |  |
| NC(=O)[C@H]1O[C@@H](O)[C@H](O)[C@@H](O)[C@@H]1O [D-glucoronamide] | >122 | 6.84E+03 | 1.6 | provided a therapeutic effect | provided a therapeutic effect | P (a Pass initial pH corresponds to the pH being at or between 5.5-6.5) | P (a Pass initial pH corresponds to the pH being at or between 5.5-6.5) | P (a Pass initial pH corresponds to the pH being at or between 5.5-6.5) |  |  |
| Cl.NCCC[C@H](N)C(=O)O [L-Ornthine] | 1.31 | 1.24 | 3.97 |  |  | P (a Pass initial pH corresponds to the pH being at or between 5.5-6.5) | P (a Pass initial pH corresponds to the pH being at or between 5.5-6.5) | P (a Pass initial pH corresponds to the pH being at or between 5.5-6.5) |  | provided a therapeutic effect |
| CSCC[C@H](N)C(=O)N[C@@H](C)C(=O)O [Met-Ala] (H-Met-Ala-OH) | 7.33 |  |  | provided a therapeutic effect |  | P (a Pass initial pH corresponds to the pH being at or between 5.5-6.5) | L (A Low initial pH corresponds to an initial pH being less than 5.5) | L (A Low initial pH corresponds to an initial pH being less than 5.5) |  |  |
| O=C1NC(=O)C(=O)C(=O)N1 [Alloxan] | 4.83 | 1.45E+04 |  | provided a therapeutic effect | provided a therapeutic effect | P (a Pass initial pH corresponds to the pH being at or between 5.5-6.5) | P (a Pass initial pH corresponds to the pH being at or between 5.5-6.5) | L (A Low initial pH corresponds to an initial pH being less than 5.5) |  |  |
| N[C@@H](CO)C(=O)O [L-Serine] | 393 | >299 | 0.45 | provided a therapeutic effect | provided a therapeutic effect | P (a Pass initial pH corresponds to the pH being at or between 5.5-6.5) | P (a Pass initial pH corresponds to the pH being at or between 5.5-6.5) | P (a Pass initial pH corresponds to the pH being at or between 5.5-6.5) |  |  |
| CC(O)C(N)=O (stereo not drawn) [DL Lactamide] | 7.52 | >1330 | 0.8 | provided a therapeutic effect | provided a therapeutic effect | P (a Pass initial pH corresponds to the pH being at or between 5.5-6.5) | P (a Pass initial pH corresponds to the pH being at or between 5.5-6.5) | P (a Pass initial pH corresponds to the pH being at or between 5.5-6.5) |  |  |
| C[C@H](N)C(=O)N[C@@H](CCC(=O)O)C(=O)O [Ala-Glu] (H-Ala-Glu-OH) | 10.67 |  |  | provided a therapeutic effect |  | P (a Pass initial pH corresponds to the pH being at or between 5.5-6.5) | L (A Low initial pH corresponds to an initial pH being less than 5.5) | L (A Low initial pH corresponds to an initial pH being less than 5.5) |  |  |
| CSCC[C@H](N)C(=O)O [L-Methionine] | >1.71E+05 | 0.78 | 0.75 | provided a therapeutic effect |  | P (a Pass initial pH corresponds to the pH being at or between 5.5-6.5) | P (a Pass initial pH corresponds to the pH being at or between 5.5-6.5) | P (a Pass initial pH corresponds to the pH being at or between 5.5-6.5) |  |  |
